Laboratory results: article PMC6270838, “Design and Synthesis of C-Terminal Modified Cyclic Peptides as VEGFR1 Antagonists” (Molecules, 2014)
Bridge positions count the residues as written; N and C are the ends. Peptide text beside a SMILES is read from it. * marks the point of attachment. X1 = COc1ccc2c(CN*)cc(=O)oc2c1

Tests used:
D2 domain of VEGFR1 = conditions: shares with VEGF a common binding site on D2 (His223, Arg224); cited from earlier work
From the text: In the laboratory, a series of cyclic octapeptides has been developed.

[1] = molecular target: recombinant human VEGFR1 extracellular domains (ECD) (Homo sapiens, UniProt P17948); conditions: average of at least 3 tests each in triplicate
recombinant human VEGFR1 extracellular domains (ECD), sequence (P17948 27-758 limits assumed): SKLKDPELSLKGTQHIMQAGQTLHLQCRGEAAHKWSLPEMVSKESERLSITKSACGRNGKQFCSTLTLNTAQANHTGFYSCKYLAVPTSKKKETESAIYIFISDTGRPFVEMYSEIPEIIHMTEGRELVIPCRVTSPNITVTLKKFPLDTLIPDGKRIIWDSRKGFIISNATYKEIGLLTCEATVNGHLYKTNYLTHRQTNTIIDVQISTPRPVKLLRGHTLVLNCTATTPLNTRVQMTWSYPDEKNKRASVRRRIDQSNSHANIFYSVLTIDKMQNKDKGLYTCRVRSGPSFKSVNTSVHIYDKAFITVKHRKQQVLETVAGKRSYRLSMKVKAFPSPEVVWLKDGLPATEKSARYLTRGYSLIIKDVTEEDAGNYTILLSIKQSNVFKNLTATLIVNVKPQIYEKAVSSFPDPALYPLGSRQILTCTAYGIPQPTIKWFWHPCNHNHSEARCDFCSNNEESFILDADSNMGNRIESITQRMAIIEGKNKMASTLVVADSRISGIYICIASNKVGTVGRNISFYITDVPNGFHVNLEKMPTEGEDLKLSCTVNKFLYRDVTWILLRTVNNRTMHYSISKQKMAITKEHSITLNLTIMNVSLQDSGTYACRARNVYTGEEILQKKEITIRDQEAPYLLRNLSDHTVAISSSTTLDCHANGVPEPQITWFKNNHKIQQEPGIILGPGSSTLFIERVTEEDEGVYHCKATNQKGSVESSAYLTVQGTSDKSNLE
Experimental: Peptides VEGFR1 binding ability was determined by a competition ELISA test. Briefly, recombinant human VEGFR1 extracellular domains (ECD) were adsorbed on the surface of a 96-well microplate. After washing and BSA blocking, the plate was incubated with different compounds at 100 µM in competition with biotinylated VEGF (btVEGF). After additional washing steps, the remaining btVEGF was detected by chemiluminescence, via an HRP-conjugated streptavidin.
The 96-well plates were coated with humanized extracellular domains (ECD) of VEGFR-1 (R&D Systems, Abingdon, UK) in PBS (20 ng/well) overnight at 4 °C. On the following day, the plates were washed with 250 µL wash buffer (PBS containing 0.1% (v/v) Tween 20) three times and treated with blocking buffer (PBS containing 3% (w/v) BSA) at 37 °C for 2 h, followed by three washes with wash buffer. 50 µL of peptides solution at twice the desired final concentration (in PBS containing 2% DMSO) were added in triplicate wells and the plate was kept at 37 °C for 1 h. A solution of btVEGF-A165 (R & D Systems, Abingdon, UK) at twice the desired final concentration (typically 100 pM) in 50 µL PBS was added. After 2 h incubation, the plates were washed four times with wash buffer. 100 µL of Streptavidin‑Horseradish Peroxidase (Amersham, Pittsburgh, PA, USA) diluted 1:8000 w in PBS containing 0.1% (v/v) Tween 20 and 0.3% (w/v) BSA) were then added to each well to detect the btVEGF‑A165 bound to the ECD of VEGFR1. After 45 min incubation at 37 °C and in the dark, the plate was washed five times with wash buffer. A volume of 100 µL of SuperSignal West Pico Chemioluminescent Substrate (Pierce, Rockford, IL, USA) was added and the chemiluminescence was quantified with a Perkin Elmer Victor 2 spectrophotometer (Victor Wallac Multilabel reader). The percentages of displacement were calculated by the following formula: 100 × [1 − (S − NS)/(MS − NS)] where S is the signal measured, NS is the nonspecific binding signal defined as the signal measured in the absence of coated receptor on the microplate, and MS is the maximum binding signal obtained with (bt)-VEGF-A165 without competitor.

[2] = water solubility (qualitative); format: physicochemical; conditions: qualitative comparison between peptides

Row | Compound | interaction with the D2 domain of VEGFR1 by NMR (D2 domain of VEGFR1) | Displacement (%) 30 µM ([1]; dose dependence, peptide 30 µM, NA means no activity) | Displacement (%) 50 µM ([1]; dose dependence, peptide 50 µM) | Displacement (%) 100 µM ([1]; dose dependence, peptide 100 µM) | Displacement 100 µM (%) ([1]; percentage of btVEGF displaced by peptide at 100 µM, btVEGF-A165 typically 100 pM, chemiluminescence, same btVEGF batch) | water solubility [2]
1 | c[YYDEGLEE]-NH2 (sidechain bridge or staple) [Peptide 1] | interacts |  |  |  |  | 
2 | COc1ccc2c(CNC(=O)[C@@H]3CCC(=O)N[C@@H](Cc4ccc(O)cc4)C(=O)N[C@@H](CCCCN)C(=O)N[C@@H](CC(=O)O)C(=O)N[C@@H](CCC(=O)O)C(=O)NCC(=O)N[C@@H](CC(C)C)C(=O)N[C@@H](CCC(=O)O)C(=O)N3)cc(=O)oc2c1 [Peptide 19] (YKDEGLEE-X1; lactam N-8) |  | 11% | 41% | 68% | 68% | slightly less water soluble than 15 and 16
